Measured values: ChEMBL document CHEMBL1201862, “PubChem BioAssay data set” (2004)
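In this assay, cells in 96-well plates receive the compound at five concentrations for 48 hours. Endpoints are linearly interpolated between the surrounding concentrations. At the GI50, growth is halved.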 Calls of active or inactive are those of the source. Cut-off read from the data, not from the text of the source: active = GI50 up to about 1.1 µM and inactive = higher.

Experiments:
Assay in all cases: DTP human tumour cell line panel, 48 h
COLO 205 = test system: COLO 205
SF-295 = test system: SF-295
U-251 = test system: U-251
NCI-H522 = test system: NCI-H522
SK-MEL-28 = test system: SK-MEL-28
HOP-62 = test system: HOP-62
HOP-92 = test system: HOP-92
OVCAR-4 = test system: OVCAR-4
DMS-273 = test system: DMS-273
KM12 = test system: KM12
SNB-19 = test system: SNB-19
MOLT-4 = test system: MOLT-4
SN12C = test system: SN12C
M14 = test system: M14
KM-20L2 = test system: KM-20L2
RXF 393 = test system: RXF 393
NCI/ADR-RES = test system: NCI/ADR-RES
MCF7 = test system: MCF7
DU-145 = test system: DU-145
T47D = test system: T47D

SMILES	GI50 (COLO 205)	GI50 (SF-295)	GI50 (U-251)	GI50 (NCI-H522)	GI50 (SK-MEL-28)	GI50 (HOP-62)	GI50 (HOP-92)	GI50 (OVCAR-4)	GI50 (DMS-273)	GI50 (KM12)	GI50 (SNB-19)	GI50 (MOLT-4)	GI50 (SN12C)	GI50 (M14)	GI50 (KM-20L2)	GI50 (RXF 393)	GI50 (NCI/ADR-RES)	GI50 (MCF7)	GI50 (DU-145)	GI50 (T47D)
O=c1ccn([C@@H]2C[C@H](CO)C[S+]([O-])C2)c(=O)[nH]1 (stereo not given in full)	> 100 µM (inactive)	> 100 µM (inactive)	> 100 µM (inactive)	> 100 µM (inactive)	> 100 µM (inactive)	> 100 µM (inactive)	> 100 µM (inactive)	> 100 µM (inactive)	> 100 µM (inactive)	> 100 µM (inactive)	> 100 µM (inactive)	> 100 µM (inactive)	> 100 µM (inactive)	> 100 µM (inactive)	> 100 µM (inactive)					
N#C/C(=C\c1ccc(CP(=O)(O)O)cc1)C(N)=O	> 100 µM (inactive)	> 100 µM (inactive)	> 100 µM (inactive)	> 100 µM (inactive)	> 100 µM (inactive)	> 100 µM (inactive)	> 100 µM (inactive)	> 100 µM (inactive)	> 100 µM (inactive)	> 100 µM (inactive)	> 100 µM (inactive)	> 100 µM (inactive)	> 100 µM (inactive)	> 100 µM (inactive)	> 100 µM (inactive)					
COc1cccc2c1C(=O)c1c(O)c3c(c(O)c1C2=O)C[C@@](O)(C(C)=O)C[C@@H]3OC1CC([N+]([O-])(Cc2ccccc2)Cc2ccccc2)C(O)C(C)O1 (stereo not given in full)		1.19 µM (inactive)	1.24 µM (inactive)	1.39 µM (inactive)		1.56 µM (inactive)	1.52 µM (inactive)	1.77 µM (inactive)		1.48 µM (inactive)	2.13 µM (inactive)	0.191 µM (active)	1.06 µM (active)	1.69 µM (inactive)	1.55 µM (inactive)	1.21 µM (inactive)				
CN(CCCCN)c1ccc2c(=O)[nH][nH]c(=O)c2c1	> 100 µM (inactive)	> 100 µM (inactive)	> 100 µM (inactive)	> 100 µM (inactive)	> 100 µM (inactive)	> 100 µM (inactive)	> 100 µM (inactive)	> 100 µM (inactive)	> 100 µM (inactive)	> 100 µM (inactive)	> 10 µM (inactive)	> 100 µM (inactive)	> 100 µM (inactive)	13.5 µM (inactive)		> 100 µM (inactive)				
Cc1cc(C)nc(NS(=O)(=O)c2ccc(NC(=O)c3cccc4c(=O)c5ccccc5[nH]c34)cc2)n1	18.3 µM (inactive)	19.8 µM (inactive)	16.5 µM (inactive)	13.1 µM (inactive)	18.8 µM (inactive)	20.1 µM (inactive)	20 µM (inactive)	18.5 µM (inactive)	22.1 µM (inactive)	17 µM (inactive)	27.2 µM (inactive)	30.5 µM (inactive)	15.9 µM (inactive)	18.9 µM (inactive)	19.5 µM (inactive)					
Nc1ccccc1Nc1ccccc1C(=O)[O-].Nc1ccccc1Nc1ccccc1C(=O)[O-].[Zn+2]	> 100 µM (inactive)	32.8 µM (inactive)	> 100 µM (inactive)	19.7 µM (inactive)	> 100 µM (inactive)	> 100 µM (inactive)				> 100 µM (inactive)	> 100 µM (inactive)	> 100 µM (inactive)	> 100 µM (inactive)	51.4 µM (inactive)	> 100 µM (inactive)					
CC(C)Cc1cc(CCC(=O)Nc2ccccc2[N+](=O)[O-])nc(NC#N)n1	> 100 µM (inactive)	> 100 µM (inactive)	> 100 µM (inactive)	> 100 µM (inactive)	> 100 µM (inactive)	> 100 µM (inactive)	> 100 µM (inactive)	> 100 µM (inactive)		> 100 µM (inactive)	> 100 µM (inactive)	> 100 µM (inactive)	> 100 µM (inactive)	> 100 µM (inactive)	> 100 µM (inactive)	> 100 µM (inactive)				
COc1ccc(/C=C2\C(=O)N(NC(C)=O)c3ccccc32)cc1	> 100 µM (inactive)	> 100 µM (inactive)	> 100 µM (inactive)		> 100 µM (inactive)	97.3 µM (inactive)	> 100 µM (inactive)	> 100 µM (inactive)	99.1 µM (inactive)	87.9 µM (inactive)	> 100 µM (inactive)	40.9 µM (inactive)	> 100 µM (inactive)	> 100 µM (inactive)	> 100 µM (inactive)					
CC1CCN(CC(=O)N2c3ccccc3Sc3cc4ccccc4cc32)CC1	> 100 µM (inactive)	> 100 µM (inactive)	> 100 µM (inactive)	> 100 µM (inactive)	> 100 µM (inactive)	> 100 µM (inactive)	> 100 µM (inactive)	> 100 µM (inactive)		51.9 µM (inactive)	> 100 µM (inactive)	36.4 µM (inactive)	38.7 µM (inactive)	> 100 µM (inactive)		> 100 µM (inactive)	> 100 µM (inactive)	47.5 µM (inactive)	> 100 µM (inactive)	> 100 µM (inactive)
Cn1c2ccccc2c(=NNc2ccc(S(N)(=O)=O)cc2)c2ccccc21	18.7 µM (inactive)	13.6 µM (inactive)	19 µM (inactive)	11.2 µM (inactive)	18.6 µM (inactive)	15.3 µM (inactive)	8.85 µM (inactive)	14.3 µM (inactive)		11.2 µM (inactive)	27.6 µM (inactive)	3.95 µM (inactive)	18.4 µM (inactive)	24 µM (inactive)		16.2 µM (inactive)	14.1 µM (inactive)	13.6 µM (inactive)	21.6 µM (inactive)	5.45 µM (inactive)
Cc1ccc2c(ccc3[nH]cc(CNc4ccc(NS(C)(=O)=O)cc4)c32)n1	29 µM (inactive)	21.8 µM (inactive)	25.9 µM (inactive)	14.9 µM (inactive)	23.4 µM (inactive)	24.2 µM (inactive)	26.7 µM (inactive)	21.7 µM (inactive)		18.3 µM (inactive)	36.4 µM (inactive)	18.6 µM (inactive)	27.2 µM (inactive)	17.6 µM (inactive)		9.14 µM (inactive)	81.7 µM (inactive)	19.3 µM (inactive)	18.7 µM (inactive)	12.3 µM (inactive)
COc1cc([C@@H]2c3cc4c(cc3C(N)C3COC(=O)[C@@H]32)OCO4)cc(OC)c1O (stereo not given in full)	0.13 µM (active)	0.0624 µM (active)				2.88 µM (inactive)		0.71 µM (active)			0.17 µM (active)	0.266 µM (active)	0.445 µM (active)	0.269 µM (active)	0.176 µM (active)	0.049 µM (active)				
CCN(C(=O)/C=C/c1ccco1)c1ccccc1	> 100 µM (inactive)	> 100 µM (inactive)	> 100 µM (inactive)	> 100 µM (inactive)	> 100 µM (inactive)	> 100 µM (inactive)	> 100 µM (inactive)	> 100 µM (inactive)		> 100 µM (inactive)	> 100 µM (inactive)	53.8 µM (inactive)	> 100 µM (inactive)	> 100 µM (inactive)		> 100 µM (inactive)	> 100 µM (inactive)	> 100 µM (inactive)	> 100 µM (inactive)	> 100 µM (inactive)
COc1ccc(C2c3cc4c(cc3OC(N3CCOCC3)C2C)OCO4)cc1 (stereo not given)	27.2 µM (inactive)	15.1 µM (inactive)	18 µM (inactive)	30 µM (inactive)	28.6 µM (inactive)	22.5 µM (inactive)	4.14 µM (inactive)	37.8 µM (inactive)		23.4 µM (inactive)	27.9 µM (inactive)	12 µM (inactive)	37.3 µM (inactive)	26.9 µM (inactive)		19.1 µM (inactive)	23.2 µM (inactive)	26.1 µM (inactive)	27.7 µM (inactive)	7.96 µM (inactive)
Cc1cn([C@H]2C[C@](C)(CO)N(C)O2)c(=O)[nH]c1=O	> 100 µM (inactive)	> 100 µM (inactive)	> 100 µM (inactive)	> 100 µM (inactive)	> 100 µM (inactive)	> 100 µM (inactive)	> 100 µM (inactive)	> 100 µM (inactive)		> 100 µM (inactive)	> 100 µM (inactive)	> 100 µM (inactive)	> 100 µM (inactive)	> 100 µM (inactive)		> 100 µM (inactive)	> 100 µM (inactive)	> 100 µM (inactive)	> 100 µM (inactive)	> 100 µM (inactive)
Oc1cc(-c2cccc(OC(F)(F)F)c2)nc2cc3c(cc12)OCO3	1.24 µM (inactive)	0.0845 µM (active)	0.0658 µM (active)	0.0441 µM (active)	0.323 µM (active)	0.119 µM (active)	1.05 µM (active)	1.19 µM (inactive)		0.0968 µM (active)	0.0938 µM (active)	0.0371 µM (active)	0.169 µM (active)	0.0867 µM (active)		0.166 µM (active)	0.0334 µM (active)	0.135 µM (active)	0.0459 µM (active)	55.7 µM (inactive)
CC(Oc1ccc2c(-c3ccccc3)cc(=O)oc2c1)C(=O)O (stereo not given)	> 100 µM (inactive)	> 100 µM (inactive)	> 100 µM (inactive)	> 100 µM (inactive)	> 100 µM (inactive)	> 100 µM (inactive)	> 100 µM (inactive)	> 100 µM (inactive)		> 100 µM (inactive)	> 100 µM (inactive)	> 100 µM (inactive)	> 100 µM (inactive)	> 100 µM (inactive)	> 100 µM (inactive)	> 100 µM (inactive)				
